Key:
Test in all cases: relative viability (nuclei count vs DMSO), 5 days (fraction); higher = more cells survive
AGI-6780 + Phenformin = compound: O=C(Nc1cccc(C(F)(F)F)c1)Nc1cc(S(=O)(=O)NC2CC2)ccc1-c1ccsc1 [AGI-6780] + N=C(N)NC(=N)NCCc1ccccc1 [Phenformin] (partner 250 µM)
In short: (§1)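 Relative viability is defined as nuclei in treated wells over nuclei in vehicle wells. Duplicate plates were run and medians reported. Lung cancer cell lines in 1536-well plates were dosed by pin tool one day after seeding, with one drug or with a fixed anchor-drug dose plus five library-drug doses (not always all listed) in √10 steps, and nuclei were counted after 5 days.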

AGI-6780 + Trametinib = compound: O=C(Nc1cccc(C(F)(F)F)c1)Nc1cc(S(=O)(=O)NC2CC2)ccc1-c1ccsc1 [AGI-6780] + CC(=O)Nc1cccc(-n2c(=O)n(C3CC3)c(=O)c3c(Nc4ccc(I)cc4F)n(C)c(=O)c(C)c32)c1 [Trametinib] (partner 0.02 µM)
In short: as §1

AGI-6780 + OSI-027 = compound: O=C(Nc1cccc(C(F)(F)F)c1)Nc1cc(S(=O)(=O)NC2CC2)ccc1-c1ccsc1 [AGI-6780] + COc1cccc2cc(-c3nc([C@H]4CC[C@H](C(=O)O)CC4)n4ncnc(N)c34)[nH]c12 [OSI-027] (partner 0.5 µM)
In short: as §1

AGI-6780 + Crizotinib = compound: O=C(Nc1cccc(C(F)(F)F)c1)Nc1cc(S(=O)(=O)NC2CC2)ccc1-c1ccsc1 [AGI-6780] + C[C@@H](Oc1cc(-c2cnn(C3CCNCC3)c2)cnc1N)c1c(Cl)ccc(F)c1Cl [Crizotinib] (partner 1 µM)
In short: as §1

## PC-3 [JPC-3]
AGI-6780 + Phenformin; first compound 0.08 µM
  relative viability: 0.51
AGI-6780 + Phenformin; first compound 0.253 µM
  relative viability: 0.483
AGI-6780 + Phenformin; first compound 0.8 µM
  relative viability: 0.479
AGI-6780 + Phenformin; first compound 2.53 µM
  relative viability: 0.502
AGI-6780 + Phenformin; first compound 8 µM
  relative viability: 0.496
AGI-6780 + Trametinib; first compound 0.253 µM
  relative viability: 0.582
AGI-6780 + Trametinib; first compound 0.8 µM
  relative viability: 0.701
AGI-6780 + Trametinib; first compound 2.53 µM
  relative viability: 0.744
AGI-6780 + Trametinib; first compound 8 µM
  relative viability: 0.626
AGI-6780 + OSI-027; first compound 0.08 µM
  relative viability: 0.776
AGI-6780 + OSI-027; first compound 0.253 µM
  relative viability: 0.748
AGI-6780 + OSI-027; first compound 0.8 µM
  relative viability: 0.781
AGI-6780 + OSI-027; first compound 2.53 µM
  relative viability: 0.691
AGI-6780 + OSI-027; first compound 8 µM
  relative viability: 0.76
AGI-6780 + Crizotinib; first compound 0.08 µM
  relative viability: 1.01
AGI-6780 + Crizotinib; first compound 0.253 µM
  relative viability: 0.928
AGI-6780 + Crizotinib; first compound 0.8 µM
  relative viability: 0.971
AGI-6780 + Crizotinib; first compound 2.53 µM
  relative viability: 0.994
AGI-6780 + Crizotinib; first compound 8 µM
  relative viability: 0.977

## PC-14
AGI-6780 + Phenformin; first compound 0.08 µM
  relative viability: 0.464
AGI-6780 + Phenformin; first compound 0.253 µM
  relative viability: 0.665
AGI-6780 + Phenformin; first compound 0.8 µM
  relative viability: 0.576
AGI-6780 + Phenformin; first compound 2.53 µM
  relative viability: 0.581
AGI-6780 + Phenformin; first compound 8 µM
  relative viability: 0.695
AGI-6780 + Trametinib; first compound 0.08 µM
  relative viability: 0.802
AGI-6780 + Trametinib; first compound 0.253 µM
  relative viability: 0.764
AGI-6780 + Trametinib; first compound 0.8 µM
  relative viability: 1.02
AGI-6780 + Trametinib; first compound 2.53 µM
  relative viability: 0.731
AGI-6780 + Trametinib; first compound 8 µM
  relative viability: 0.752
AGI-6780 + OSI-027; first compound 0.08 µM
  relative viability: 0.833
AGI-6780 + OSI-027; first compound 0.253 µM
  relative viability: 0.822
AGI-6780 + OSI-027; first compound 0.8 µM
  relative viability: 0.814
AGI-6780 + OSI-027; first compound 2.53 µM
  relative viability: 0.678
AGI-6780 + OSI-027; first compound 8 µM
  relative viability: 0.922
AGI-6780 + Crizotinib; first compound 0.08 µM
  relative viability: 0.902
AGI-6780 + Crizotinib; first compound 0.253 µM
  relative viability: 0.867
AGI-6780 + Crizotinib; first compound 0.8 µM
  relative viability: 0.971
AGI-6780 + Crizotinib; first compound 2.53 µM
  relative viability: 0.851
AGI-6780 + Crizotinib; first compound 8 µM
  relative viability: 0.928

## RERF-LC-KJ
AGI-6780 + Phenformin; first compound 0.08 µM
  relative viability: 0.421
AGI-6780 + Phenformin; first compound 0.253 µM
  relative viability: 0.455
AGI-6780 + Phenformin; first compound 0.8 µM
  relative viability: 0.439
AGI-6780 + Phenformin; first compound 2.53 µM
  relative viability: 0.367
AGI-6780 + Phenformin; first compound 8 µM
  relative viability: 0.411
AGI-6780 + Trametinib; first compound 0.08 µM
  relative viability: 0.859
AGI-6780 + Trametinib; first compound 0.253 µM
  relative viability: 0.862
AGI-6780 + Trametinib; first compound 0.8 µM
  relative viability: 0.828
AGI-6780 + Trametinib; first compound 2.53 µM
  relative viability: 0.674
AGI-6780 + Trametinib; first compound 8 µM
  relative viability: 0.774
AGI-6780 + OSI-027; first compound 0.08 µM
  relative viability: 0.579
AGI-6780 + OSI-027; first compound 0.253 µM
  relative viability: 0.719
AGI-6780 + OSI-027; first compound 0.8 µM
  relative viability: 0.614
AGI-6780 + OSI-027; first compound 2.53 µM
  relative viability: 0.465
AGI-6780 + OSI-027; first compound 8 µM
  relative viability: 0.454
AGI-6780 + Crizotinib; first compound 0.08 µM
  relative viability: 0.769
AGI-6780 + Crizotinib; first compound 0.253 µM
  relative viability: 0.879
AGI-6780 + Crizotinib; first compound 0.8 µM
  relative viability: 0.808
AGI-6780 + Crizotinib; first compound 2.53 µM
  relative viability: 0.791
AGI-6780 + Crizotinib; first compound 8 µM
  relative viability: 0.792

## SK-LU-1
AGI-6780 + Phenformin; first compound 0.08 µM
  relative viability: 0.549
AGI-6780 + Phenformin; first compound 0.253 µM
  relative viability: 0.555
AGI-6780 + Phenformin; first compound 2.53 µM
  relative viability: 0.404
AGI-6780 + Phenformin; first compound 8 µM
  relative viability: 0.588
AGI-6780 + Trametinib; first compound 0.08 µM
  relative viability: 0.614
AGI-6780 + Trametinib; first compound 0.253 µM
  relative viability: 0.537
AGI-6780 + Trametinib; first compound 0.8 µM
  relative viability: 0.368
AGI-6780 + Trametinib; first compound 2.53 µM
  relative viability: 0.651
AGI-6780 + Trametinib; first compound 8 µM
  relative viability: 0.497
AGI-6780 + OSI-027; first compound 0.08 µM
  relative viability: 0.348
AGI-6780 + OSI-027; first compound 0.253 µM
  relative viability: 0.406
AGI-6780 + OSI-027; first compound 2.53 µM
  relative viability: 0.312
AGI-6780 + OSI-027; first compound 8 µM
  relative viability: 0.359
AGI-6780 + Crizotinib; first compound 0.08 µM
  relative viability: 1.01
AGI-6780 + Crizotinib; first compound 0.253 µM
  relative viability: 0.904
AGI-6780 + Crizotinib; first compound 0.8 µM
  relative viability: 0.629
AGI-6780 + Crizotinib; first compound 2.53 µM
  relative viability: 0.936
AGI-6780 + Crizotinib; first compound 8 µM
  relative viability: 0.878

## SK-MES-1
AGI-6780 + Phenformin; first compound 0.08 µM
  relative viability: 0.689
AGI-6780 + Phenformin; first compound 0.253 µM
  relative viability: 0.647
AGI-6780 + Phenformin; first compound 0.8 µM
  relative viability: 0.623
AGI-6780 + Phenformin; first compound 2.53 µM
  relative viability: 0.665
AGI-6780 + Phenformin; first compound 8 µM
  relative viability: 0.683
AGI-6780 + Trametinib; first compound 0.08 µM
  relative viability: 0.549
AGI-6780 + Trametinib; first compound 0.253 µM
  relative viability: 0.577
AGI-6780 + Trametinib; first compound 0.8 µM
  relative viability: 0.509
AGI-6780 + Trametinib; first compound 2.53 µM
  relative viability: 0.532
AGI-6780 + Trametinib; first compound 8 µM
  relative viability: 0.493
AGI-6780 + OSI-027; first compound 0.08 µM
  relative viability: 0.635
AGI-6780 + OSI-027; first compound 0.253 µM
  relative viability: 0.662
AGI-6780 + OSI-027; first compound 0.8 µM
  relative viability: 0.561
AGI-6780 + OSI-027; first compound 2.53 µM
  relative viability: 0.448
AGI-6780 + OSI-027; first compound 8 µM
  relative viability: 0.509
AGI-6780 + Crizotinib; first compound 0.08 µM
  relative viability: 0.942
AGI-6780 + Crizotinib; first compound 0.253 µM
  relative viability: 0.964
AGI-6780 + Crizotinib; first compound 0.8 µM
  relative viability: 0.935
AGI-6780 + Crizotinib; first compound 2.53 µM
  relative viability: 0.871
AGI-6780 + Crizotinib; first compound 8 µM
  relative viability: 0.953

## SW 1573
AGI-6780 + Phenformin; first compound 0.08 µM
  relative viability: 0.378
AGI-6780 + Phenformin; first compound 0.253 µM
  relative viability: 0.36
AGI-6780 + Phenformin; first compound 0.8 µM
  relative viability: 0.567
AGI-6780 + Phenformin; first compound 8 µM
  relative viability: 0.368
AGI-6780 + Trametinib; first compound 0.08 µM
  relative viability: 0.567
AGI-6780 + Trametinib; first compound 0.253 µM
  relative viability: 0.533
AGI-6780 + Trametinib; first compound 0.8 µM
  relative viability: 0.489
AGI-6780 + Trametinib; first compound 8 µM
  relative viability: 0.602
AGI-6780 + OSI-027; first compound 0.08 µM
  relative viability: 0.685
AGI-6780 + OSI-027; first compound 0.253 µM
  relative viability: 0.656
AGI-6780 + OSI-027; first compound 0.8 µM
  relative viability: 0.801
AGI-6780 + OSI-027; first compound 8 µM
  relative viability: 0.562
AGI-6780 + Crizotinib; first compound 0.08 µM
  relative viability: 0.786
AGI-6780 + Crizotinib; first compound 0.253 µM
  relative viability: 0.883
AGI-6780 + Crizotinib; first compound 0.8 µM
  relative viability: 0.912
AGI-6780 + Crizotinib; first compound 2.53 µM
  relative viability: 0.681
AGI-6780 + Crizotinib; first compound 8 µM
  relative viability: 0.815

## UMC-11
AGI-6780 + Phenformin; first compound 0.08 µM
  relative viability: 0.336
AGI-6780 + Phenformin; first compound 0.253 µM
  relative viability: 0.344
AGI-6780 + Phenformin; first compound 0.8 µM
  relative viability: 0.336
AGI-6780 + Phenformin; first compound 8 µM
  relative viability: 0.365
AGI-6780 + Trametinib; first compound 0.08 µM
  relative viability: 0.657
AGI-6780 + Trametinib; first compound 0.253 µM
  relative viability: 0.708
AGI-6780 + Trametinib; first compound 0.8 µM
  relative viability: 0.812
AGI-6780 + Trametinib; first compound 8 µM
  relative viability: 0.902
AGI-6780 + OSI-027; first compound 0.08 µM
  relative viability: 0.488
AGI-6780 + OSI-027; first compound 0.253 µM
  relative viability: 0.452
AGI-6780 + OSI-027; first compound 0.8 µM
  relative viability: 0.473
AGI-6780 + OSI-027; first compound 8 µM
  relative viability: 0.509
AGI-6780 + Crizotinib; first compound 0.08 µM
  relative viability: 0.754
AGI-6780 + Crizotinib; first compound 0.253 µM
  relative viability: 0.606
AGI-6780 + Crizotinib; first compound 0.8 µM
  relative viability: 0.676
AGI-6780 + Crizotinib; first compound 8 µM
  relative viability: 0.751

— the supplement of paper PMC10307832
